# From patent US20220356163A1, “SMALL MOLECULE INHIBITORS OF Id PROTEINS” (MEMORIAL SLOAN KETTERING CANCER CENTER, priority 2019, published 2022)
# How the values were obtained:
# Id1 (59-104) = target: T1, Id1 (59-104) (Mus musculus, UniProt P20067); assay: UV crosslinking of AGX51-XL2 to purified Id1 with mass spectrometry; type: binding; settings: 10-fold excess of AGX51
# T1 construct: 1 μg of purified Id1 (a.a.59-104) and 19.7 ng of AGX51-XL2; made in house; host or cells: E. coli Rosetta 2(DE3)
# Procedure: Covalent binding of AGX51 derivative to Id1. An analog of AGX51 (AGX51-XL2) was used which contains a benzophenone photoreactive moiety. 1 μg of purified Id1 (a.a.59-104) and 19.7 ng of AGX51-XL2 (dissolved in DMSO) were combined, in the dark, and then exposed to UV light for 20 minutes, a negative control without UV exposure was also included. The samples were then run in the dark on a 15% denaturing gel, silver stained according to the manufacturers protocol (SilverQuest Staining Kit, Invitrogen, Grand Island, N.Y., USA) and bands were excised for mass spectrometry as described below.
# In-gel digestion for mass spectrometry. In-gel digestion was performed using the method by Shevchenko et al. (Nat Protoc 1(6):2856-60 (2006)). Briefly, gel bands were excised, washed with 1:1 (Acetonitrile: 100 mM ammonium bicarbonate) for 30 minutes, dehydrated with 100% acetonitrile for 10 minutes until gel slices shrunk and excess acetonitrile was removed and slices were dried in a speed-vac for 10 minutes without heat. Gel slices were reduced with 5 mM DTT for 30 minutes at 56° C. in a thermostated mixer with gentle mixing, removed, allowed to cool to room temperature then alkylated with 11 mM IAA for 30 minutes in the dark. Gel slices were washed with 100 mM ammonium bicarbonate and 100% acetonitrile for 10 minutes each. […]
# [1] = test system: new blood vessel formation; assay: Matrigel plug anti-angiogenic assay; type: in vivo, mouse; settings: in plugs 25 μg/mg or daily ip 30 or 100 mg/kg, 10 days
# Procedure: VEGF-165 and FGF-2 treated Matrigel plugs will be implanted on Day 0 into C57BL/6 mice. Mice will be treated with either vehicle, AGX51, or a compound of the present technology (such as AGX-A). The AGX51 and a compound of the present technology will be provided either in the plugs (25 μg/mg) or by daily ip treatment (30 or 100 mg/kg) for 10 days. Plugs will be harvested on Day 10, fixed and paraffin embedded. Three sections ([…]) of each plug will be stained with an anti-CD31 antibody and counterstained with hematoxylin and eosin stain. CD31-positive microvessels will be counted for one entire cross-section per plug and the average micro-vessel density±SD vessels will be determined. Student's t-test will be used for statistical analysis.
# Id3 = target: T2, Id3 (Mus musculus, UniProt P41133); assay: Circular dichroism (CD) of Id3; type: binding; settings: 0 or 100 μM
# T2 construct: GST (cleaved yes); made in house; host or cells: E. coli Rosetta 2(DE3)
# Procedure: Id protein purification. pGEV-PSP-mId1 and mId3 expression constructs were transformed into Rosetta 2(DE3) Competent Cells (Sigma Millipore) for protein expression. To produce recombinant GST-tagged protein, a 50 mL LB/Ampicillin (100 μg/m)+Chloramphenicol (25 μg/mL) culture was grown overnight at 37° C. Early the next day, the overnight culture was diluted 1:100 into 6 L LB/Ampicillin+Chloramphenicol and cultured at 37° C. for about four hours until OD600=0.7. Cultures were induced with 1 mM IPTG and incubated at 16° C. for 16-18 hours. Cells were harvested by centrifugation at 4000 rpm for 15 minutes at 4° C. and the pellet was resuspended in lysis buffer (50 mM Tris pH 8.0; 400 mM NaCl; 0.5 mM TCEP, Protease Inhibitor Cocktail) (25 mL/L of culture). To lyse the cells, Triton X-100 and lysozyme were added to 0.1% and 10 μg/mL respectively, incubated for 30 minutes on ice and sonicated. Lysates were spun at 17,000 rpm for 30 minutes at 4° C. and supernatants were filtered through a […] filter before incubation with glutathione sepharose for two hours at 4° C. The sepharose with bound protein was run through a polypropylene column and washed twice with 50 mL wash buffer (50 mM Tris pH 8.0; 400 mM NaCl) before protein was eluted with 10 mL 50 mM glutathione elution buffer, pH 8.0. […]
# T1 sequence (P20067 59-104): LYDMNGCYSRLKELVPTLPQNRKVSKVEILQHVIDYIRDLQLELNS
# T2 sequence (P41133 whole entry): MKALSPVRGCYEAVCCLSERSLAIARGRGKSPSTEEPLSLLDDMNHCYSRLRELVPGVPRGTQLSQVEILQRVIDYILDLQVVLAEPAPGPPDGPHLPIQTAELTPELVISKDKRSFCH
smiles,measurement,setting,value
"CCC(=O)N(CCC(c1ccc2c(c1)OCO2)c1ccccc1OC)Cc1ccccc1 (racemic) [AGX51, N-(3-(benzo[d][1,3]dioxol-5-yl)-3-(2-methoxyphenyl)propyl)-N-benzylpropionamide]",AGX51-XL2 binding to Id1 in presence of competitor,Id1 (59-104),significant decrease in AGX51-XL2 binding to Id1
same,new blood vessel formation in Matrigel plugs,[1],significant protection from new blood vessel formation
same,effect on Id3 secondary structure (CD),Id3,small but reproducible effect
